Data set [1] deals with T1, Human Serum Albumin (HSA) (Homo sapiens, UniProt P02768).
T1 construct: HSA (≥96%) and six PFAS were all purchased from Aladdin Chemicals (Shanghai, China); purchased Aladdin Chemicals (Shanghai, China)
The data set is described as follows: Fluorescence quenching of HSA by PFAS (Stern–Volmer, double logarithmic and Van't Hoff analysis). It counts as binding. As to conditions: for quenching of HSA fluorescence intensity: PFAS 1.8 × 10^−5 mol·L^−1, HSA 1 × 10^−6 mol·L^−1, 298 K; for Kq (quenching rate constant): τ0 taken as 10^−8 s; for ΔH / ΔS: Van't Hoff, 298–310 K; for affinity for HSA: fluorescence quenching experiments; for main interaction force from thermodynamic analysis: signs of ΔH and ΔS. The protocol: Fluorescence quenching experiments greatly benefit studies on the interactions between ligands and proteins. Initially, 3 mL of HSA stock solution was put into a 10 mm square quartz cuvette. Following that, PFAS stock solution was gradually added to achieve various final concentrations, namely 0, 3, 6, 9, 12, 15, 18 × 10^−6 mol·L^−1. By incrementally increasing the molar ratio of PFAS vs. HSA up to 18, their binding characteristics can be better investigated.
A thermostat (TR-01A, Bishui Corp, Beijing, China) was used to precisely control the solution temperature, which was set at 298, 304, and 310 K. This device includes a temperature controller and a metal heating cuvette module in conjunction with a fluorometer. This thermostat has a temperature range of 20–60 °C (293–333 K) and an accuracy of 0.1 °C Celsius. This step is critical for keeping the experimental conditions stable. Following that, the samples were fluorescence-scanned with a fluorometer (Cary Eclipse, Agilent, CA, USA). The excitation wavelength was set at 275 nm to efficiently stimulate tryptophan (Trp) and tyrosine (Tyr) residues. Additional test parameters include an emission of 275–500 nm, scanning rate of 1200 nm/min and PTV voltage of 700 v. Fluorescence quenching experiments were repeated three times, and the average values were taken for further calculation.
Fluorescence internal filtration (IFE) refers to the phenomenon where the fluorescence intensity decreases during fluorescence measurement due to the absorption of excitation or emission light by sample components (small molecules or proteins) in solution [19, 20]. This phenomenon is more obvious in the samples with a high concentration of adsorbent. A fluorescence correction formula was used in this study to correct the IFE effect on the data, as follows: Fcorr=Fobs×10^Aex+Aem/2 where Fcorr and Fobs are corrected and observed fluorescence emission intensities, respectively, Aex and Aem are UV-vis absorbances at the excitation and emission wavelengths.
The quenching constant can be calculated using the Stern–Volmer Equation (3). The results are shown in Table 2 and Figure 1: F0/F=1+Kqτ0=1+KsvQ where F0 and F refer to HSA fluorescence intensities without and with the quencher (PFAS solution); Kq is the biomacromolecule’s quenching rate constant; τ0 is the average fluorescence lifetime of the fluorescent molecule when the quencher PFAS is absent, usually taken as 10^−8 s; [Q] is the PFAS concentration; Ksv is the Stern–Volmer quenching constant; F0/F is the vertical axis; the Stern–Volmer curves of this system are 298, 304, and 310 K.
The double logarithmic formula can be used to calculate the binding constants and binding site numbers of HSA–PFAS complexes: logF0−F/F=logKb+nlogQ where F0 and F are parameters representing the initial fluorescence intensity and the fluorescence intensity after adding PFAS, respectively. The binding characteristics are represented by the binding constant, Kb, and the number of binding sites, n. The slope of the straight line is the number of binding sites, n, and the binding constant Kb is obtained from the exponent of the straight line’s intercept using the double logarithmic graph. Figure A2 and Table 2 show the calculation results.
The enthalpy change (∆H), entropy change (∆S), and free energy change (∆G) calculated from the Van’t Hoff equation [50] can be used to determine the type of interaction. lnKb=−ΔH/RT+ΔS/R ΔG=ΔH−TΔS=−RTlnKb where R represents the ideal gas constant (8.314 J·mol^−1·K^−1).

In data set [2] the target is T2, HSA (Homo sapiens, UniProt P02768).
T2 construct: HSA (≥96%) and six PFAS were all purchased from Aladdin Chemicals (Shanghai, China); purchased Aladdin Chemicals (Shanghai, China)
T2 sequence (P02768 25-609): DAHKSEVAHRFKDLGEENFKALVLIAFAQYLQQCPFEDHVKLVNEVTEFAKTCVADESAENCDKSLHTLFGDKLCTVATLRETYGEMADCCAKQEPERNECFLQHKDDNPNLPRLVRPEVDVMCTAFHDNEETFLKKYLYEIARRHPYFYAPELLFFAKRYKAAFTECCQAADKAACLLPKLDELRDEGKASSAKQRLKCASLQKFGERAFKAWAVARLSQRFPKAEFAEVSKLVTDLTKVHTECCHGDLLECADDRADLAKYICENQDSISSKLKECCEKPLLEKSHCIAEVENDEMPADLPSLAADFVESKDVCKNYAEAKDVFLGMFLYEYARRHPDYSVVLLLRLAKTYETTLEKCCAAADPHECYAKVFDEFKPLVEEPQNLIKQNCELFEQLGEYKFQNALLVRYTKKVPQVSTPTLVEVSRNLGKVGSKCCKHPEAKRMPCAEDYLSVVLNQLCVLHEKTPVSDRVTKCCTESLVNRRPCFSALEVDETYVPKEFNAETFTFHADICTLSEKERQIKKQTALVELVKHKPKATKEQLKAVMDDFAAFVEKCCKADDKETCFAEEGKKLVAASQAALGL
The data set is described as follows: 3D-EEM fluorescence spectra of HSA–PFAS. The settings on record: for 3D-EEM Peak A Position λex/λem / 3D-EEM Peak B Position λex/λem / 3D-EEM Peak A Intensity F / 3D-EEM Peak B Intensity F: HSA 1 × 10^−6, PFAS 1.8 × 10^−5 mol·L^−1; for 3D-EEM Peak A Intensity F: HSA alone 673.66; for 3D-EEM Peak B Intensity F: HSA alone 996.906. The protocol:
The 3D-EEM spectra were recorded using specific scanning parameters at the scanning rate of 2400 nm·min^−1, an […] with 5 nm increments, and an emission of 280–550 nm with 2 nm increments. The concentrations of PFAS and HSA were set at 18 × 10^−6 mol·L^−1 and 1 × 10^−6 mol·L^−1, respectively.

Data set [3] addresses T2, HSA. The data set is described as follows: Circular dichroism (CD) spectrum, secondary structure of HSA. The settings on record: HSA:PFAS 1:18, 298 K; for HSA secondary structure: β-Sheet: HSA alone 4.9; for HSA secondary structure: β-Turn: HSA alone 16.9; for HSA secondary structure: Random Coil: HSA alone 36.7; for HSA secondary structure: α-Helix: HSA alone 41.6. The source says: CD measurements (190–260 nm) were taken before and after the addition of PFAS to HSA using a J-815 CD spectrometer equipped with a PMT detector (JASCO, Tokyo, Japan). The protein concentration was set at 1 × 10^−6 mol/L, with a fixed HSA-to-PFAS concentration ratio of 1:18. The scanning rate was set to 100 nm/min with 0.5 nm increments, and the photometric mode of HT. Each sample was scanned three times. The blank buffer control was automatically subtracted during the scanning process. All tests were carried out at 298 K. The CONTIN analysis method from the DichroWeb was employed to determine the contents of the protein’s secondary structure.
In general terms: Circular dichroism is widely used to follow secondary structure.

In data set [4] the target is T2, HSA. The data set is described as follows: Competitive probe experiment (warfarin, ibuprofen, lidocaine). The format is binding. From the text: Competitive probe experiments are commonly used to identify specific binding sites in the structure of proteins. Three probe molecules known to bind to distinct binding sites on HSA were selected: warfarin (subdomain IIA), ibuprofen (subdomain IIIA), and lidocaine (subdomain IIB). These probe molecules would compete with PFAS for the same protein sites when binding with HSA. The potential binding sites can be inferred by monitoring and comparing changes in fluorescence intensity when probe molecules are present.

The conditions of data set [5]: human body, cited from earlier work.

“Also recorded” adds a separate entry of the source. Where two headings read alike, the source gives them in different places.

T1 sequence (P02768 25-609): as above

With `O=C(O)C(F)(F)C(F)(F)C(F)(F)C(F)(F)C(F)(F)C(F)(F)C(F)(F)C(F)(F)F` [PFNA, Perfluorononanoic Acid], in data set [1], the fluorescence quenching mechanism entry is reported as “static quenching”, the “quenching of HSA fluorescence intensity” value was 30.6%, the ΔH is -66.503 ± 1.3 kcal/mol and the ΔS is −805.8 ± 13.8 J·mol^−1·K^−1. In data set [1], the “affinity for HSA” value is recorded as “high affinity” and the “main interaction force from thermodynamic analysis” value is on record as “hydrogen bonds or van der Waals interactions; also recorded: hydrogen bonds or van der Waals forces”. Further, in data set [1] (T = 298 K), the “KSV (Stern–Volmer quenching constant)” value is 2.52 ± 0.10 × 10^4 L·mol^−1, the “n (number of binding sites)” value is recorded as 1.51 ± 0.06, the ΔG is -9.398 kcal/mol and the “Kq (quenching rate constant)” value is on record as 2.52 ± 0.10 × 10^12 L·mol^−1·s^−1. Moreover, in data set [1] (T = 304 K), the “KSV (Stern–Volmer quenching constant)” value is reported as 2.35 ± 0.11 × 10^4 L·mol^−1, the “n (number of binding sites)” value was 1.18 ± 0.03, the ΔG was -7.376 kcal/mol and the “Kq (quenching rate constant)” value was 2.35 ± 0.11 × 10^12 L·mol^−1·s^−1. In data set [1] (T = 310 K), the “KSV (Stern–Volmer quenching constant)” value is listed as 1.27 ± 0.04 × 10^4 L·mol^−1, the “n (number of binding sites)” value is given as 1.10 ± 0.04, the ΔG was -7.087 kcal/mol and the “Kq (quenching rate constant)” value was 1.27 ± 0.04 × 10^12 L·mol^−1·s^−1. For the same molecule, the “HSA fluorescence peak position after PFAS addition (blue shift from 337 nm)” value in data set [1] (as the concentration of PFAS increases) stood at 317 nm. Besides, at HSA [2], the “3D-EEM Peak A Position λex/λem” value was 280/329, the “3D-EEM Peak B Position λex/λem” value is given as 230/310, the “3D-EEM Peak A Intensity F” value is 418.74 a.u and the “3D-EEM Peak B Intensity F” value is on record as 800.96 a.u. Moreover, at HSA [2] (after binding with HSA), the “reduction of 3D-EEM peak A intensity” value was determined as 37.8% and the “reduction of 3D-EEM peak B intensity” value is given as 19.7%. On HSA [3], the “HSA secondary structure: β-Sheet” value was 7.6%, the “HSA secondary structure: β-Turn” value was determined as 15.1%, the “HSA secondary structure: Random Coil” value came out at 41.2% and the “HSA secondary structure: α-Helix” value worked out at 36.2%. In addition, the “φ (rate of decrease in Kb)” value on HSA [4] (ibuprofen probe) is listed as 13.8%. In addition, the “φ (rate of decrease in Kb)” value at HSA [4] (lidocaine probe) came out at 43.9%. In addition, the “φ (rate of decrease in Kb)” value on HSA [4] (warfarin probe) is 98.3%.
Consider `O=C(O)C(F)(F)OC(F)(F)C(F)(F)OC(F)(F)C(F)(F)OC(F)(F)F` [PFO3DA, Perfluoro-3,6,9-trioxadecanoic Acid], for which, in data set [1], the fluorescence quenching mechanism entry is on record as “static quenching”, the “quenching of HSA fluorescence intensity” value is reported as 15.3%, the ΔH is -25.471 ± 0.937 kcal/mol and the ΔS is −259.2 ± 9.4 J·mol^−1·K^−1. Further, in data set [1], the “affinity for HSA” value is listed as “high affinity” and the “main interaction force from thermodynamic analysis” value is given as “hydrogen bonds or van der Waals interactions; also recorded: hydrogen bonds or van der Waals forces”. In data set [1] (T = 298 K), the “KSV (Stern–Volmer quenching constant)” value is reported as 1.05 ± 0.06 × 10^4 L·mol^−1, the “n (number of binding sites)” value is 1.25 ± 0.03, the ΔG was -7.091 kcal/mol and the “Kq (quenching rate constant)” value is 1.05 ± 0.06 × 10^12 L·mol^−1·s^−1. For the same molecule, in data set [1] (T = 304 K), the “KSV (Stern–Volmer quenching constant)” value is on record as 1.03 ± 0.06 × 10^4 L·mol^−1, the “n (number of binding sites)” value stood at 1.33 ± 0.02, the ΔG was -6.479 kcal/mol and the “Kq (quenching rate constant)” value is on record as 1.03 ± 0.06 × 10^12 L·mol^−1·s^−1. In addition, in data set [1] (T = 310 K), the “KSV (Stern–Volmer quenching constant)” value was 0.87 ± 0.04 × 10^4 L·mol^−1, the “n (number of binding sites)” value worked out at 1.10 ± 0.03, the ΔG is -6.348 kcal/mol and the “Kq (quenching rate constant)” value was 0.87 ± 0.04 × 10^12 L·mol^−1·s^−1. Besides, at HSA [2], the “3D-EEM Peak A Position λex/λem” value was 280/329, the “3D-EEM Peak B Position λex/λem” value is recorded as 230/325, the “3D-EEM Peak A Intensity F” value is on record as 525.07 a.u and the “3D-EEM Peak B Intensity F” value is given as 886.91 a.u. At HSA [3], the “HSA secondary structure: β-Sheet” value was determined as 5.8%, the “HSA secondary structure: β-Turn” value came to 17.3%, the “HSA secondary structure: Random Coil” value is given as 40.6% and the “HSA secondary structure: α-Helix” value turned out to be 36.4%. For the same molecule, on HSA [4] (ibuprofen probe), the “φ (rate of decrease in Kb)” value amounted to 25.8%. For the same molecule, on HSA [4] (lidocaine probe), the “φ (rate of decrease in Kb)” value is reported as 11.8%. Moreover, at HSA [4] (warfarin probe), the “φ (rate of decrease in Kb)” value amounted to 95.1%.
As to `O=S(=O)(O)C(F)(F)C(F)(F)C(F)(F)C(F)(F)C(F)(F)C(F)(F)C(F)(F)C(F)(F)F` [PFOS, Perfluorooctanesulfonic acid], the average half-life in data set [5] (study on 19 PFAS) is on record as approximately 4.52 years; in data set [5], 5.4 years.

The values above are taken from publication PMC10819430, “Binding Affinity and Mechanism of Six PFAS with Human Serum Albumin: Insights from Multi-Spectroscopy, DFT and Molecular Dynamics Approaches” (Toxics, 2024).
